Data: PMC5399295 (Nature Communications, 2017)
Like-named read-outs stand apart in the source and are kept apart here. One block for each molecule: values may come before it.

How the values were obtained:
[1] = molecular target: T1, β2-adaptin (Homo sapiens, UniProt P63010); assay: cell-based; set-up: species or system HEK293T; conditions: β-arrestin1/β2-adaptin interaction, V2R stimulated; read-out: IC50 AP2/βarr1 (V2R)
T1 construct: gene AP2B1; residues 700-937 StrepTagII used only for DSF
Protocol: To assess the potency of these compounds, concentration-response curves of the inhibitory actions of the compounds on the V2R-stimulated β-arrestin/β2-adaptin interaction were carried out. In addition to compounds #33 and #42, compound #1 was included in the analysis as a negative control (Fig. 2a–c). […] First, the reversible mode of action of Barbadin was assessed by incubating cells with Barbadin for 30 min and monitoring BRET between β2-adaptin and β-arrestin1 following, or not, extensive wash before AVP stimulation. […] HEK293T cells stably expressing β2-adaptin-YFP (ref. [24]) were cultured as aforementioned with the addition of G418 in the supplemented DMEM. Forty-eight hours before the experiments, 10 μg of total DNA (adjusted with salmon sperm DNA) was used to transfect 6 × 10^6 cells per ml in 10-cm dishes using 25-kDa linear PEI as a transfecting agent (3:1 PEI/DNA ratio). […] On the day of the BRET experiment, cells were washed, detached and resuspended in Tyrode's buffer. Cells (10^5 cells per well) were distributed in 96-wells microplates. DMSO or compounds selected from the virtual screening were preincubated for 30 min at indicated concentrations, always keeping DMSO at 1% final concentration in each well. Cells were treated with AVP or ISO at the indicated times and concentrations, at room temperature. Coelenterazine H (for YFP BRET acceptor) or coelenterazine 400 A (for GFP10 BRET acceptor) was added at a final concentration of 2.5 μM five minutes before measurements. Readings were collected with a Mithras LB 940 multidetector plate reader (Berthold Technologies) to integrate signals detected in the 485/20 nm and 530/25 nm windows for the Renilla luciferase (RlucII) and YFP light emissions, respectively, and in the 400/70 nm and 515/25 nm windows for the RlucII and GFP10 light emissions, respectively. The BRET signal was determined by calculating the ratio of the light intensity emitted by the YFP or GFP10 over the light intensity emitted by the RlucII. Net BR

[2] = molecular target: T1, β2-adaptin; assay: differential scanning fluorimetry (CPM dye) on purified β2-appendage, dose-dependent Tm shift; supported by GST-β2-adaptin([…]) pull-down and cell BRET (IC50 […] for β-arrestin1, from cell BRET); format: cell-based
[3] = system: β2-adaptin; assay: cells; set-up: species or system HEK293T; ebBRET receptor-RlucII with rGFP-CAAX, inhibition of agonist-induced receptor loss from plasma membrane; conditions: Homo sapiens, HEK-293T, 0.5 h; β2AR endocytosis, ISO 10 uM 30 min; read-out: IC50 membrane localization β2AR
From the text: Because the interaction between β-arrestins and β2-adaptin is important for initiating receptor internalization, we next sought to determine whether Barbadin could be used as a pharmacological tool, to block the ligand-promoted endocytosis of GPCRs. For this purpose, we used enhanced bystander BRET (ebBRET) trafficking sensors allowing to monitor both receptor disappearance from the plasma membrane (rGFP-CAAX sensor, Fig. 4a) and their accumulation in early endosomes (rGFP-FYVE, Fig. 4e) in spectrometric and microscopy-based assays. […] The effect of Barbadin on endocytosis was further confirmed using BRET-microscopy allowing to image receptor localization at the plasma membrane (Fig. 4i and Supplementary Fig. 5i), and in early endosomes (Supplementary Fig. 5j), coherent with the spectrometric measurements (Fig. 4b–d,f–h). Figure 4 Barbadin inhibits GPCRs endocytosis. […] (b–d,f–h) V2R, β2AR or AT1R interaction with either rGFP-CAAX (b–d, respectively) or rGFP-FYVE (f–h, respectively) was assessed by BRET following HEK293T cells pre-incubation with DMSO or Barbadin (100 μM) for 30 min before AVP (100 nM), ISO (10 μM) or AngII (1 μM) stimulation for the indicated times. […] To generate BRET images, the ratio of acceptor photon counts to donor photon counts was calculated for each pixel and expressed as a colour-coded heat map (lowest being black and purple, and highest red and white). […]

[4] = system: β2-adaptin; assay: cells; set-up: species or system HEK293T; ebBRET receptor-RlucII with rGFP-FYVE, inhibition of agonist-induced receptor accumulation in early endosomes; conditions: Homo sapiens, HEK-293T, 0.5 h
From the text: Because the interaction between β-arrestins and β2-adaptin is important for initiating receptor internalization, we next sought to determine whether Barbadin could be used as a pharmacological tool, to block the ligand-promoted endocytosis of GPCRs. For this purpose, we used enhanced bystander BRET (ebBRET) trafficking sensors allowing to monitor both receptor disappearance from the plasma membrane (rGFP-CAAX sensor, Fig. 4a) and their accumulation in early endosomes (rGFP-FYVE, Fig. 4e) in spectrometric and microscopy-based assays. […] The effect of Barbadin on endocytosis was further confirmed using BRET-microscopy allowing to image receptor localization at the plasma membrane (Fig. 4i and Supplementary Fig. 5i), and in early endosomes (Supplementary Fig. 5j), coherent with the spectrometric measurements (Fig. 4b–d,f–h).  Figure 4 Barbadin inhibits GPCRs endocytosis. (a,e) Schematic representation of the ebBRET-based assay used to follow agonist-induced receptor loss from the cell surface by monitoring the interaction between receptor-RLucII and rGFP-CAAX (a) or its translocation into endosomes using rGFP-FYVE (e). (b–d,f–h) V2R, β2AR or AT1R interaction with either rGFP-CAAX (b–d, respectively) or rGFP-FYVE (f–h, respectively) was assessed by BRET following HEK293T cells pre-incubation with DMSO or Barbadin (100 μM) for 30 min before AVP (100 nM), ISO (10 μM) or AngII (1 μM) stimulation for the indicated times. Data are the mean±s.e.m. of a least three independent experiments. (i) V2R localization was imaged by BRET. HEK293T cells were transfected with V2R-RlucII and rGFP-CAAX, pretreated with DMSO or Barbadin (100 μM) for 30 min and then stimulated with 100 nM AVP for 30 min. To generate BRET images, the ratio of acceptor photon counts to donor photon counts was calculated for each pixel and expressed as a colour-coded heat map (lowest being black and purple, and highest red and white). Scale bar, 10 μm.

[5] = molecular target: T2, β2-adaptin(700–937)-StrepTagII (human, UniProt P63010 700-937); assay: differential scanning fluorimetry (thermal shift); 0.78 μM purified β2-adaptin (700–937) in PBS with 0.5 mM Triton X-100, 30 min with 20 μM β-arrestin1 C-terminal peptide; CPM dye; 30 °C to 90 °C at 6 °C per min; conditions: both partners purified
T2 construct: human β2-adaptin, residues 700 to 937 (appendage domain); printed molecular weight 26.88 kDa; Cloned into pRSETA between BamHI and Acc65I; also called β2-appendage; β-appendage; source: E. coli BL21 pLysS, purified (Strep-Tactin Sepharose, sepharose column, gel filtration)
T2 sequence (looked up): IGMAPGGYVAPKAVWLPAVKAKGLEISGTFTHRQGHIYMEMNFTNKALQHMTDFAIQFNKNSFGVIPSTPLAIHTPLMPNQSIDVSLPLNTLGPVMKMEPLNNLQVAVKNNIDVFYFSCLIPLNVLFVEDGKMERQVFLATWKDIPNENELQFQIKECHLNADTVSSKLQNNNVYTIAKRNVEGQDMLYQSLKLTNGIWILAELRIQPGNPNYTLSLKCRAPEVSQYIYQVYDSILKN

T1 sequence (P63010 2-937): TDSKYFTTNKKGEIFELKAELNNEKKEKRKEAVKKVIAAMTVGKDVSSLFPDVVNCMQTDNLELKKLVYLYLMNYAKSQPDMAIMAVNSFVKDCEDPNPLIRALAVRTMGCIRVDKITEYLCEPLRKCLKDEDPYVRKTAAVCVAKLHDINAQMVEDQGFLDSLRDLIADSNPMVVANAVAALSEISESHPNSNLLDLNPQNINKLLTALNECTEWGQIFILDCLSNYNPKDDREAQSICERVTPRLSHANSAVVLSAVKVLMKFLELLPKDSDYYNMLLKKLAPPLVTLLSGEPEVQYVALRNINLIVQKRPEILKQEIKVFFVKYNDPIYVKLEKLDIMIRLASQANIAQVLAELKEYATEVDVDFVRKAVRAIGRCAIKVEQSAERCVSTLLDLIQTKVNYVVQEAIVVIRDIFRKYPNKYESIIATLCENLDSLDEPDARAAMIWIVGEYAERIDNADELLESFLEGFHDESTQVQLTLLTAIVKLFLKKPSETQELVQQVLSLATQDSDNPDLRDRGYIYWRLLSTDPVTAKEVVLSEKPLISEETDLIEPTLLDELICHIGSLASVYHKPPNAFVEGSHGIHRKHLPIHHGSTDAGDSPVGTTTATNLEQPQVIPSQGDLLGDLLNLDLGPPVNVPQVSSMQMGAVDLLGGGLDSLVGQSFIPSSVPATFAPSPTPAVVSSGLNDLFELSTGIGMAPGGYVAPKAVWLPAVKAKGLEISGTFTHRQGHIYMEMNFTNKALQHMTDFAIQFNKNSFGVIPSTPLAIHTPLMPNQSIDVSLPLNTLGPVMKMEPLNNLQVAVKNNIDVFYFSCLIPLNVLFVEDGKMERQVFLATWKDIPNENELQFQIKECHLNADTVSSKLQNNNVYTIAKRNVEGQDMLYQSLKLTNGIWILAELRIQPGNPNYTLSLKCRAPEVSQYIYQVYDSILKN
T1 sequence (P49407 whole entry partner, the tested form may be a part): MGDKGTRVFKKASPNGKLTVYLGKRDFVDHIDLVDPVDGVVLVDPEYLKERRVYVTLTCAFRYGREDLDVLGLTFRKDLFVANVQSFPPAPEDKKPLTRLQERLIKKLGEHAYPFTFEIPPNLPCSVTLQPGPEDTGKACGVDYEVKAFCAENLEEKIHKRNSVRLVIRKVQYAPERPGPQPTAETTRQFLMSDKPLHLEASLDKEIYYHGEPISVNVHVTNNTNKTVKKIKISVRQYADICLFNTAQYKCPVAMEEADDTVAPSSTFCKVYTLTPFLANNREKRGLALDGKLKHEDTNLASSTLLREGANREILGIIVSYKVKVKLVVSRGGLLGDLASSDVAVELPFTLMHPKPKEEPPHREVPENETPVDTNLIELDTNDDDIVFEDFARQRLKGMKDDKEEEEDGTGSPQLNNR

- IC50 [1]: 15.4 ± 6.4 µM
Molecule: Cc1nc2scc(-c3ccc(C(C)(C)C)cc3)c2c(=O)n1N [Cpd #43]

- binding result [5]: binds
B1: β-arrestin1 C-terminal peptide (peptide)
peptide: DDDIVFEDFARQRLKGMKDD
notes: C-terminal stretch of β-arrestin1; holds Phe-388, Phe-391 and Arg-395; also called β-arrestin1 C-tail peptide; 20-mer β-arrestin C-tail peptide; source: synthetic peptide (Genscript)

Continued, molecule first:

Molecule: Nn1cnc2scc(-c3ccc(-c4ccccc4)cc3)c2c1=O [Analogue-C]
- IC50 [1]: 54.3 ± 45 µM

Molecule: Nn1cnc2scc(-c3ccc(Cc4ccccc4)cc3)c2c1=O [#42, 3-amino-5-(4-benzylphenyl)-3H,4H-thieno[2,3-d]pyrimidin-4-one]
- IC50 [2]: 19.1 µM
- IC50 [3]: 18.2 ± 7.7 µM
- IC50 [1]: 14.6 ± 5 µM
- IC50 ([4]; AT1R endocytosis, AngII 1 uM 30 min, read-out: IC50 endosome localization AT1R): 40.6 ± 24.4 µM
- IC50 ([4]; V2R endocytosis, AVP 100 nM 30 min, read-out: IC50 endosome localization V2R): 31.5 ± 14.4 µM
- IC50 ([4]; β2AR endocytosis, ISO 10 uM 30 min, read-out: IC50 endosome localization β2AR): 18.4 ± 9.8 µM
